Earlier results, collected in patent publication US9655859B2, “Accordion pill comprising levodopa for an improved treatment of Parkinson's disease symptoms” (INTEC PHARMA LTD., priority 2010, dated 2017).

Target: T1, peripheral DOPA decarboxylase (Homo sapiens, UniProt P20711)
T1 construct: host or cells: endogenous enzyme of peripheral tissues in vivo
T1 sequence (P20711 1-480): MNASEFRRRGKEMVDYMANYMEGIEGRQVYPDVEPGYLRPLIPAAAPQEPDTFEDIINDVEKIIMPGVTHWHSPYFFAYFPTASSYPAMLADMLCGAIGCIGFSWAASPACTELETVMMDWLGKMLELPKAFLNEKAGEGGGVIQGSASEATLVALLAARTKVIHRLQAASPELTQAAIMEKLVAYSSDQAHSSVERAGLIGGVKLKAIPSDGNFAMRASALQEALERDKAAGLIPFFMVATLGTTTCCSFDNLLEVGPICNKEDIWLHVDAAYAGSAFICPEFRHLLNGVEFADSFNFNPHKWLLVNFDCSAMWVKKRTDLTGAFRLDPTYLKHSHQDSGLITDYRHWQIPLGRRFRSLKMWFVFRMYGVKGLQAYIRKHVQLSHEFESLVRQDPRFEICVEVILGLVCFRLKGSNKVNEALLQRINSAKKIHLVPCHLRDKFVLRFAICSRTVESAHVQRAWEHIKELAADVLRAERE
Conditions: studies cited

Compound: C[C@@](Cc1ccc(O)c(O)c1)(NN)C(=O)O [carbidopa]
- carbidopa amount saturating peripheral DOPA decarboxylase: 70 to 100 mg a day
